{"source": "patent US4835139A", "about": "“Process for increasing the antagonistic effect of peptidic compounds on hormone-dependent diseases” (Debiopharm S.A., priority 1983, dated 1989)", "key": {"[1]": {"test_system": "prostatic tumor R-3327-H according to Dunning", "experiment": "Antagonistic effect on Dunning R-3327-H prostate carcinoma in rats, 30 days", "format": "in vivo", "conditions": "encapsulated 25 micrograms daily i.m.", "text": "(DUNNING R-3327-H PROSTRATE CARCINOMA)."}, "[2]": {"experiment": "Body and organ weights of the rats bearing the Dunning R-3327-H tumor", "conditions": "30 days, encapsulated 25 micrograms daily i.m.", "procedure": "In vivo tests were carried out on groups of 7 to 10 animals during a period of 30 days.\nThe administration of the non-encapsulated Compound A adequately dissolved in a biocompatible solvent was achieved by the subcutaneous injection of two doses every day, each dose containing 25 micrograms of compound A (Table 2) or 12.5 micrograms of compound A (Table 3).\nThe administration of the encapsulated compound A was achieved by the daily intra-muscular injection of doses of the preparation suspended in a biocompatible solvent, each such dose containing 25 micrograms of compound A."}, "[3]": {"conditions": "Table 2, non-encapsulated 2 x 25 micrograms/day s.c."}, "[4]": {"conditions": "Table 3, non-encapsulated 2 x 12.5 micrograms/day s.c."}}, "data": [{"smiles": "CC(C)C[C@H](NC(=O)[C@@H](Cc1c[nH]c2ccccc12)NC(=O)[C@H](Cc1ccc(O)cc1)NC(=O)[C@H](CO)NC(=O)[C@H](Cc1c[nH]c2ccccc12)NC(=O)[C@H](Cc1c[nH]cn1)NC(=O)[C@@H]1CCC(=O)N1)C(=O)N[C@@H](CCCNC(=N)N)C(=O)N1CCC[C@H]1C(=O)NCC(N)=O", "note": "[Compound A non-encapsulated, (pyro) Glu-His-Trp-Ser-Tyr-D-Trp-Leu-Arg-Pro-Gly-NH2]", "values": [{"measurement": "Increase of tumor volume", "setting": "[1]; [3]", "value": "85 + 19%"}, {"measurement": "Tumor (Dunning R3327-H Prostate Carcinoma)", "setting": "[1]; [3]", "value": "546 + 0.14 mg"}, {"measurement": "Increase of tumor volume", "setting": "[1]; [4]", "value": "110 + 28%"}, {"measurement": "Tumor (Dunning R3327-H Prostate Carcinoma)", "setting": "[1]; [4]", "value": "260 + 68 mg"}, {"measurement": "Testicles", "setting": "[2]; [3]", "value": "1.36 ± 0.14", "unit": "g"}, {"measurement": "Ventral portion of prostate", "setting": "[2]; [3]", "value": "54 + 5 mg"}, {"measurement": "Testicles", "setting": "[2]; [4]", "value": "1.83 ± 0.07", "unit": "g"}, {"measurement": "Ventral portion of prostate", "setting": "[2]; [4]", "value": "88 + 7 mg"}]}]}
